Results on eight molecules are retold here after PubChem BioAssay (NCI).

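A five-concentration, 48-hour dose response in 96-well plates underlies each endpoint, interpolated linearly between surrounding concentrations. TGI marks complete inhibition of growth.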

Among the test systems are UO-31 renal; KM12 colon; SF-295 CNS; SK-MEL-5 melanoma; HCT-15 colon; OVCAR-8 ovarian; EKVX NSCLC; RXF 393 renal; OVCAR-5 ovarian; 786-0 renal; HOP-92 NSCLC; SK-OV-3 ovarian; BT-549 breast; SW-620 colon; HL-60(TB) leukemia; HCT-116 colon; OVCAR-3 ovarian; K-562 leukemia; A549 NSCLC; IGROV1 ovarian.
Common to all, as to assay: NCI-60 cell line screen, 48 h

As for `COc1cc(/C=C2/SC(c3ccccc3)N(c3cccc(Cl)c3)C2=O)cc(OC)c1OC` (stereo not given), the TGI is > 100 µM in the test on UO-31 renal; > 100 µM with KM12 colon; > 100 µM with SF-295 CNS; > 100 µM in the test with SK-MEL-5 melanoma; > 100 µM in the test with HCT-15 colon; 59.6 µM with OVCAR-8 ovarian. Further, the TGI is > 100 µM in the test on EKVX NSCLC; 53.1 µM with RXF 393 renal; > 100 µM in the test on OVCAR-5 ovarian; 36.4 µM in the test on 786-0 renal; 77.4 µM in the test with HOP-92 NSCLC; > 100 µM in the test on SK-OV-3 ovarian. In addition, the TGI in the test with BT-549 breast is 72 µM; with SW-620 colon, > 100 µM; with HL-60(TB) leukemia, > 100 µM; in the test on HCT-116 colon, 34.8 µM; with OVCAR-3 ovarian, > 100 µM; in the test with K-562 leukemia it was > 100 µM. Besides, in the test with A549 NSCLC, the TGI is > 100 µM.

On to `COc1ccc(/C=C2\C(=O)N(C)C(=O)c3cc(OC)c(OC)cc32)cc1OC`, for which the TGI is > 100 µM with UO-31 renal; 78.7 µM with SF-295 CNS; 89.8 µM with SK-MEL-5 melanoma; > 100 µM in the test on HCT-15 colon; 27.9 µM in the test with EKVX NSCLC; 51.6 µM with RXF 393 renal. In addition, the TGI was > 100 µM in the test with OVCAR-5 ovarian; > 100 µM in the test on 786-0 renal; 75.5 µM with HOP-92 NSCLC; > 100 µM with IGROV1 ovarian; 55.6 µM with BT-549 breast; > 100 µM in the test with SW-620 colon. Moreover, the TGI with HL-60(TB) leukemia was 40.1 µM; in the test on HCT-116 colon, > 100 µM; with OVCAR-3 ovarian, > 100 µM; in the test with K-562 leukemia, > 100 µM; in the test with A549 NSCLC, > 100 µM.

On to `C=C1[C@H](OC(=O)C(C)C)[C@]23CC4(O)[C@@H]5[C@@]6(C)CCC[C@]57C([C@@H]2C[C@@]1(O)[C@H](O)[C@@H]73)N4C6`, for which the TGI in the test with UO-31 renal, in the test with KM12 colon, in the test with SF-295 CNS, in the test with SK-MEL-5 melanoma, with HCT-15 colon and in the test with OVCAR-8 ovarian was > 100 µM throughout. In addition, the TGI with EKVX NSCLC, with RXF 393 renal, in the test on OVCAR-5 ovarian, with 786-0 renal, with HOP-92 NSCLC and with SK-OV-3 ovarian was > 100 µM each time. Further, the TGI in the test with IGROV1 ovarian, in the test on BT-549 breast, in the test with SW-620 colon, in the test on HL-60(TB) leukemia, in the test on HCT-116 colon and in the test with OVCAR-3 ovarian was > 100 µM throughout. Besides, in the test with A549 NSCLC, the TGI was > 100 µM.

On to `COc1ccc(NC(=O)CC(=O)N2N=C(c3ccccc3)C(N=Nc3ccc(S(=O)(=O)CCOS(=O)(=O)O)cc3)C2=O)cc1` (stereo not given), for which the TGI in the test with UO-31 renal, in the test on KM12 colon, in the test on SF-295 CNS, with SK-MEL-5 melanoma, in the test on HCT-15 colon and in the test with OVCAR-8 ovarian was > 100 µM in each case. Moreover, the TGI in the test on EKVX NSCLC, with RXF 393 renal, in the test on 786-0 renal, in the test on HOP-92 NSCLC, in the test with SK-OV-3 ovarian and with IGROV1 ovarian was > 100 µM throughout. The TGI in the test on BT-549 breast, in the test with SW-620 colon, in the test on HL-60(TB) leukemia, in the test on HCT-116 colon, with OVCAR-3 ovarian and in the test with K-562 leukemia was > 100 µM each time. The TGI in the test with A549 NSCLC is > 100 µM.

In the case of `O=C1NC(=O)C(CC(C(=O)C(=O)Nc2ccccc2Cl)C(=O)c2ccc3ccccc3c2)C(=O)N1` (stereo not given), the TGI with UO-31 renal, in the test with KM12 colon, in the test on SF-295 CNS, in the test on SK-MEL-5 melanoma, in the test on HCT-15 colon and in the test on OVCAR-8 ovarian was > 100 µM throughout. Also, the TGI in the test with EKVX NSCLC, in the test on RXF 393 renal, in the test with OVCAR-5 ovarian, with 786-0 renal, in the test with HOP-92 NSCLC and in the test on SK-OV-3 ovarian was > 100 µM in each case. For the same molecule, the TGI in the test with IGROV1 ovarian, in the test with BT-549 breast, in the test on SW-620 colon, in the test on HL-60(TB) leukemia, with HCT-116 colon and in the test on OVCAR-3 ovarian was > 100 µM each time. Further, in the test with A549 NSCLC, the TGI was > 100 µM.

On to `O=C(N/N=C(/COc1ccc(Cl)cc1)N=Cc1cccnc1)c1ccncc1`, for which the TGI with KM12 colon, in the test on SF-295 CNS, in the test on HCT-15 colon, with OVCAR-8 ovarian, in the test on EKVX NSCLC and in the test on RXF 393 renal was > 100 µM each time. In addition, the TGI in the test with OVCAR-5 ovarian is > 100 µM; with 786-0 renal it was > 100 µM; in the test on HOP-92 NSCLC, 84.5 µM; with SK-OV-3 ovarian, > 100 µM; in the test with IGROV1 ovarian it was > 100 µM; in the test with BT-549 breast, > 100 µM. Also, the TGI with SW-620 colon, with HL-60(TB) leukemia, with HCT-116 colon, in the test with OVCAR-3 ovarian, with K-562 leukemia and in the test on A549 NSCLC was > 100 µM each time.

On to `CCOC(=O)C1C(c2ccc(OC)cc2)c2c([nH]n(-c3ccccc3)c2=O)CC1(O)OCC` (stereo not given), for which the TGI in the test with UO-31 renal, in the test on KM12 colon, in the test on SF-295 CNS, in the test with SK-MEL-5 melanoma, with HCT-15 colon and with OVCAR-8 ovarian was > 100 µM each time. In addition, the TGI with EKVX NSCLC, in the test with OVCAR-5 ovarian, in the test on 786-0 renal, with HOP-92 NSCLC, in the test on IGROV1 ovarian and with BT-549 breast was > 100 µM each time. Further, the TGI with SW-620 colon is > 100 µM; in the test on HL-60(TB) leukemia, 15 µM; with HCT-116 colon it was > 100 µM; with OVCAR-3 ovarian it was > 100 µM; with A549 NSCLC, > 100 µM.

With `COc1cc(OC)cc(OCc2ccc3nc(-c4ccccc4)c(Cl)nc3c2)c1`, the TGI was > 100 µM in the test on UO-31 renal; > 100 µM with KM12 colon; 67.8 µM with SF-295 CNS; 69.9 µM in the test on SK-MEL-5 melanoma; > 100 µM in the test with HCT-15 colon; 95.9 µM with OVCAR-8 ovarian. In addition, the TGI in the test with EKVX NSCLC is > 100 µM; in the test with OVCAR-5 ovarian it was > 100 µM; in the test on 786-0 renal it was 28.3 µM; in the test on HOP-92 NSCLC it was 66.4 µM; with IGROV1 ovarian, 66.4 µM; in the test with BT-549 breast, 65.3 µM. Moreover, the TGI in the test on SW-620 colon, in the test with HL-60(TB) leukemia, in the test with HCT-116 colon, with OVCAR-3 ovarian and in the test on A549 NSCLC was > 100 µM each time.
